Consider ten molecules from US10981932B2, “Macrocyclic indole derivatives” (Bayer Aktiengesellschaft, priority 2016, dated 2021).

One series addresses MCL-1 (Homo sapiens, UniProt Q07820). As to the kind of experiment: Protein-protein interaction assay MCL-1/Noxa BH3 peptide (MCL-1 assay), TR-FRET. It counts as binding. The settings on record: MBP-MCL-1 / Noxa BH3-derived peptide, median. An outline of the steps:
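Displacement of the biotinylated Noxa BH3 peptide from MBP-tagged human MCL-1 (1 nM) is detected by time-resolved FRET. Compounds are tested in duplicate across eleven concentrations up to 20 μM, incubated 1 h at 22 °C and overnight at 4 °C, and IC50 is fitted with a four-parameter equation.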

The subject of series [1] is SUDHL5. As to the kind of experiment: Induction of caspase-3/7 activity (Caspase-Glo 3/7), SUDHL5. Type of series: cell-based. The settings on record: Homo sapiens, SU-DHL-5, 3 h, caspase-3/7 induction, SUDHL5 cells, 3 h treatment; median. An outline of the steps: (§1)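 Caspase-Glo 3/7 luminescence, 3 h compound exposure, 37 °C, humidified. Minus medium-only blank. EC50 fit: C0=1, plateau = reference max induction.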

For series [2], the system named is SUDHL10. As to the kind of experiment: Induction of caspase-3/7 activity (Caspase-Glo 3/7), SUDHL10. Type of series: cell-based. The note with it: caspase-3/7 induction, SUDHL10 cells, 3 h treatment, median. An outline of the steps:
as §1

The subject of series [3] is SUDHL5. As to the kind of experiment: Anti-proliferative effect (CellTiter-Glo, 72 h), SUDHL5. Type of series: cell-based. The settings on record: Homo sapiens, SU-DHL-5, 72 h, SUDHL5 cells, antiproliferation, median, read-out: Antiproli SUDHL5 [M] (median). An outline of the steps:
(§2)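 CTG luminescence read-out after 72 h compound exposure, 37 °C, humidified. Time-zero reference plate read at plating.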

In series [4] the test system is SUDHL10. As to the kind of experiment: Anti-proliferative effect (CellTiter-Glo, 72 h), SUDHL10. It counts as cell-based. The settings on record: Homo sapiens, SU-DHL10, 72 h, SUDHL10 cells, antiproliferation, median, read-out: Antiproli SUDHL10 [M] (median). An outline of the steps:
as §2
Background: In ATP-based viability assays light output follows the ATP content of the culture.

In a further series the test system is A2780. As to the kind of experiment: Anti-proliferative effect (CellTiter-Glo, 72 h), A2780. It counts as cell-based. The settings on record: A2780 cells, median, read-out: IC50 antiproliferation assay A2780 [M] (median). An outline of the steps: as §2
Series [5] deals with SUDHL5. As to the kind of experiment: Induction of cytotoxicity (CellTiter-Glo, 5 h), SUDHL5. The settings on record: Homo sapiens, SU-DHL-5, 5 h.
For series [6], the system named is SUDHL10. As to the kind of experiment: Induction of cytotoxicity (CellTiter-Glo, 5 h), SUDHL10.
Setting [7] is: read-out: Cytotox SUDHL5 [M] (median), SUDHL5 cells, cytotoxicity induction, CellTiter-Glo, 5 h incubation, median.
The mark [8] stands for this setting: Homo sapiens, SU-DHL10, 5 h, read-out: Cytotox SUDHL10 [M] (median), SUDHL10 cells, cytotoxicity induction, CellTiter-Glo, 5 h incubation, median.
Where [9] appears, read: read-out: Cytotox SUDHL5 [M] (median), SUDHL5 cells, cytotoxicity induction, CellTiter-Glo, 5 h, median.
Setting [10] is: Homo sapiens, SU-DHL10, 5 h, read-out: Cytotox SUDHL10 [M] (median), SUDHL10 cells, cytotoxicity induction, CellTiter-Glo, 5 h, median.

Molecules are shown by their SMILES. Read-outs that look alike come from different tables or passages of the source.

MCL-1, sequence (Q07820 whole entry): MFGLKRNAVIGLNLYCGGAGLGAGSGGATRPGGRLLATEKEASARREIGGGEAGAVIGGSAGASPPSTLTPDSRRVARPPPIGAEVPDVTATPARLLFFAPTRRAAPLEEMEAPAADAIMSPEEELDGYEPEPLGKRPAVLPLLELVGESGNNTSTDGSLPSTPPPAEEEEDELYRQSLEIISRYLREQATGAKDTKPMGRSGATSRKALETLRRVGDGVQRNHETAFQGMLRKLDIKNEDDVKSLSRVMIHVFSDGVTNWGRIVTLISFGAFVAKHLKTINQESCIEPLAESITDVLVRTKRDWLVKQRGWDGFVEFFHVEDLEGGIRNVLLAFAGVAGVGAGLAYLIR

For the molecule `O=C(O)c1c(CCCOc2cccc3ccccc23)c2cccc3c2n1CCCCOCc1nn2c(c1-3)COCC2` (racemic) [Example 250, (rac)-1-[3-(naphthalen-1-yloxy)propyl]-4,5,6,7,12,13-hexahydro-9H,15H-[1,4]oxazino[4″,3″:1′,5′]pyrazolo[4′,3′:9,10][1,6]oxazacycloundecino[8,7,6-hi]indole-2-carboxylic Acid], the IC50 on MCL-1 was 7.88 nM; with SUDHL5 [3] (72 h incubation) it was 9.3e-06 M; in the series with SUDHL10 [4] (72 h incubation), 9.7e-06 M; with A2780, greater than 3.3e-05 M; in the series on A2780 (Homo sapiens, A2780, 72 h), 2.29e-05 M; in the series with SUDHL5 [5] (setting [7]), 1.33e-05 M. Besides, the IC50 in the series on SUDHL10 [6] (setting [8]) stood at 2.18e-05 M. The EC50 (usually the concentration giving half of the maximal effect) in the series with SUDHL5 [1] is 10.9 µM; in the series with SUDHL10 [2] (Homo sapiens, SU-DHL10, 3 h), 22 µM.
For the molecule `Cc1ccc2c(C(C)CCOc3cccc4ccccc34)c(C(=O)O)n3c2c1-c1c(C)nn(C)c1COCCCC3` (racemic) [Example 256, 1,3,4-trimethyl-7-[4-(naphthalen-1-yloxy)butan-2-yl]-1,10,11,12,13,15-hexahydropyrazolo[4′,3′:9,10][1,6]oxazacycloundecino[8,7,6-hi]indole-8-carboxylic Acid], the IC50 at MCL-1 is 42.5 nM; in the series with SUDHL5 [3] (72 h incubation), 1.5e-05 M; in the series on SUDHL10 [4] (72 h incubation), 9.2e-06 M; with A2780 (Homo sapiens, A2780, 72 h) it was 2.03e-05 M; with SUDHL5 [5] (setting [7]), 2.29e-05 M; in the series on SUDHL10 [6] (setting [8]), greater than 3.3e-05 M. The EC50 is greater than 33 µM in the series with SUDHL5 [1] and greater than 33 µM in the series with SUDHL10 [2] (Homo sapiens, SU-DHL10, 3 h).
`CCc1nn(C)c2c1-c1c(C)ccc3c(C(C)CCOc4cccc5cc(F)ccc45)c(C(=O)O)n(c13)CCCCOC2` (racemic) [Example 261, 3-ethyl-7-{4-[(6-fluoronaphthalen-1-yl)oxy]butan-2-yl}-1,4-dimethyl-1,10,11,12,13,15-hexahydropyrazolo[4′,3′:9,10][1,6]oxazacycloundecino[8,7,6-hi]indole-8-carboxylic Acid]: the IC50 against MCL-1 came to 3.73 nM; in the series with SUDHL5 [3] (72 h incubation) it was 1.17e-06 M; in the series on SUDHL10 [4] (72 h incubation), 4.66e-06 M; with A2780 (Homo sapiens, A2780, 72 h), 1.85e-05 M; with SUDHL5 [5] (setting [7]), 2.02e-06 M; in the series on SUDHL10 [6] (setting [8]), 3.8e-06 M. Moreover, the EC50 came to 1.77 µM in the series on SUDHL5 [1] and 3.52 µM in the series with SUDHL10 [2] (Homo sapiens, SU-DHL10, 3 h).
As for `CCc1nn(C)c2c1-c1c(C)ccc3c(CCCOc4cccc5cc(F)ccc45)c(C(=O)O)n(c13)CCCCOC2` (racemic) [Example 266, (rac)-3-ethyl-7-{3-[(6-fluoronaphthalen-1-yl)oxy]propyl}1,4-dimethyl-1,10,11,12,13,15-hexahydropyrazolo[4′3′:9,10][1,6]oxazacycloundecino[8,7,6-hi]indole-8-carboxylic Acid], the IC50 on MCL-1 worked out at 2.59 nM; with SUDHL5 [3] (72 h incubation), 9.96e-07 M; in the series with SUDHL10 [4] (72 h incubation), 2.83e-06 M; in the series on A2780 (Homo sapiens, A2780, 72 h), 2.83e-05 M; in the series with SUDHL5 [5] (setting [7]), 1.76e-06 M; in the series with SUDHL10 [6] (setting [8]) it was 4.99e-06 M. Moreover, the EC50 with SUDHL5 [1] was 1.79 µM; in the series on SUDHL10 [2] (Homo sapiens, SU-DHL10, 3 h), 4.47 µM.
Turning to `CCc1nn(C)c2c1-c1c(C)ccc3c(CCCOc4cc(C)c(Cl)c(C)c4)c(C(=O)O)n(c13)CCCCOC2` (racemic) [Example 269, (rac)-1(3-(4-chloro-3,5-dimethylphenoxy)propyl)-12-ethyl-10,13-dimethyl-4,5,6,7,9,10-hexahydropyrazolo[4′,3′:9,10][1]oxa[6]azacycloundecino[8,7,6-hi]indole-2-carboxylic Acid], the IC50 against MCL-1 worked out at 7.74 nM; in the series with SUDHL5 [3] (72 h incubation), 2.26e-06 M; with SUDHL10 [4] (72 h incubation) it was 7.27e-06 M; in the series on A2780 (Homo sapiens, A2780, 72 h), 2.93e-05 M; in the series with SUDHL5 [5] (setting [7]) it was 4.98e-06 M; with SUDHL10 [6] (setting [8]), 1.47e-05 M. The EC50 in the series with SUDHL5 [1] turned out to be 4.83 µM; with SUDHL10 [2] (Homo sapiens, SU-DHL10, 3 h) it was 13.2 µM.
For `CCc1nn(C)c2c1-c1c(C)ccc3c(CCCOc4cccc5c4CCCC5)c(C(=O)O)n(c13)CCCCOC2` (racemic) [Example 270, (rac)-12-ethyl-10,13-dimethyl-1-(3-((5,6,7,8-tetrahydronaphthalen-1-yl)oxy)propyl)-4,5,6,7,9,10-hexahydropyrazolo[4′,3′:9,10][1]oxa[6]azacycloundecino[8,7,6-hi]indole-2-carboxylic Acid], the IC50 against MCL-1 is 5.78 nM; in the series on SUDHL5 [3] (72 h incubation) it was 5.37e-06 M; with SUDHL10 [4] (72 h incubation), 1.2e-05 M; in the series on A2780 (Homo sapiens, A2780, 72 h), greater than 3.3e-05 M; with SUDHL5 [5] (setting [7]), 5.39e-06 M; with SUDHL10 [6] (setting [8]), 2.19e-05 M. Also, the EC50 amounted to 6.18 µM in the series with SUDHL5 [1] and 19.3 µM in the series on SUDHL10 [2] (Homo sapiens, SU-DHL10, 3 h).
Regarding `COc1ccc(OCc2nn(C)c3c2-c2cccc4c(CCCOc5cccc6ccccc56)c(C(=O)O)n(c24)CCCCOC3)cc1` (racemic) [Example 319, (rac)-3-[(4-methoxyphenoxy)methyl]-1-methyl-7-[3-(naphthalen-1-yloxy)propyl]-1,10,11,12,13,15-hexahydropyrazolo[4′,3′:9,10][1,6]oxazacycloundecino[8,7,6-hi]indole-8-carboxylic Acid], the IC50 was 37.1 nM on MCL-1; 1.21e-05 M in the series with SUDHL5 [3] (72 h); 5.93e-06 M in the series with SUDHL10 [4] (72 h); 1.26e-05 M in the series with A2780 (Homo sapiens, A2780, 72 h); 2.11e-05 M in the series with SUDHL5 [5] (setting [9]); 2.83e-05 M in the series on SUDHL10 [6] (setting [10]). Besides, the 50% effective concentration (EC50) in the series with SUDHL5 [1] came to 18.4 µM; in the series on SUDHL10 [2] (Homo sapiens, SU-DHL10, 3 h), 30.7 µM.
Consider `CN1CCCn2c(C(=O)O)c(CCCOc3cccc4ccccc34)c3cccc(c32)-c2c(nn(C)c2C(F)(F)F)C1` (racemic) [Example 324, (rac)-7,10-dimethyl-1-[3-(naphthalen-1-yloxy)propyl]-11-(trifluoromethyl)-4,5,6,7,8,10-hexahydropyrazolo[3′,4′:7,8][1,5]diazecino[9,10,1-hi]indole-2-carboxylic Acid], for which the IC50 against MCL-1 was 27 nM; with SUDHL5 [3] (72 h) it was 1.59e-05 M; with SUDHL10 [4] (72 h), 1.62e-05 M; in the series on A2780 (Homo sapiens, A2780, 72 h), 2.46e-05 M; in the series on SUDHL5 [5] (setting [9]) it was 2.92e-05 M; in the series with SUDHL10 [6] (setting [10]) it was 2.68e-05 M. For the same molecule, the IC50 in the series with SUDHL10 [6] (read-out: Cytotox SUDHL10 [M] (median), SUDHL10 cells, cytotoxicity induction, CellTiter-Glo, 5 h, median) is greater than 3.3e-05 M. Further, the EC50 was greater than 33 µM with SUDHL5 [1]; 32.1 µM in the series with SUDHL10 [2] (Homo sapiens, SU-DHL10, 3 h); greater than 33 µM in the series on SUDHL10 [2].
On to `Cn1nc(CN2CCCCC2=O)c2c1COCCCCn1c(C(=O)O)c(CCCOc3cccc4ccccc34)c3cccc-2c31` (racemic) [Example 325, (rac)-1-methyl-7-[3-(naphthalen-1-yloxy)propyl]-3-[(2-oxopiperidin-1-yl)methyl]-1,10,11,12,13,15-hexahydropyrazolo[4′,3′:9,10][1,6]oxazacycloundecino[8,7,6-hi]indole-8-carboxylic Acid], for which the IC50 against MCL-1 was 80.2 nM; with SUDHL5 [3] (72 h), 2.13e-05 M; in the series with SUDHL10 [4] (72 h), 1.45e-05 M; in the series on A2780 (Homo sapiens, A2780, 72 h), greater than 3.3e-05 M; with SUDHL5 [5] (setting [9]), greater than 3.3e-05 M; in the series on SUDHL10 [6] (setting [10]) it was greater than 3.3e-05 M. Further, the EC50 in the series on SUDHL5 [1] was greater than 33 µM; in the series on SUDHL10 [2] (Homo sapiens, SU-DHL10, 3 h) it was greater than 33 µM.
In the case of `Cn1nc(CN2CCCC2=O)c2c1COCCCCn1c(C(=O)O)c(CCCOc3cccc4ccccc34)c3cccc-2c31` (racemic) [Example 328, (rac)-1-methyl-7-[3-(naphthalen-1-yloxy)propyl]-3-[(2-oxopyrrolidin-1-yl)methyl]-1,10,11,12,13,15-hexahydropyrazolo[4′,3′:9,10][1,6]oxazacycloundecino[8,7,6-hi]indole-8-carboxylic Acid], the IC50 is 46.7 nM against MCL-1; 1.87e-05 M in the series on SUDHL5 [3] (72 h); 1.9e-05 M in the series on SUDHL10 [4] (72 h); greater than 3.3e-05 M in the series with A2780 (Homo sapiens, A2780, 72 h); greater than 3.3e-05 M in the series on SUDHL5 [5] (setting [9]); greater than 3.3e-05 M in the series on SUDHL10 [6] (setting [10]). Moreover, the EC50 in the series with SUDHL5 [1] was greater than 33 µM; with SUDHL10 [2] (Homo sapiens, SU-DHL10, 3 h), greater than 33 µM.
